Measurements published in patent US7939639B2, “Functional role of adrenomedullin (AM) and the gene related product (PAMP) in human pathology and physiology” (The United States of America as represented by the …, priority 1995, dated 2011).
“And” between values parts separate entries of the source, which are not always exact repeats. Equal values may be shown once. “Also recorded” adds a separate entry of the source.

Legend:
rat isolated islets [1] = assay: Insulin release from rat isolated islets (RIA); assay type: cell-based
Method: (§1) Dose-dependent increase of intracellular cAMP in the islets following addition of AM. Islets from six rats were isolated following well-established protocols (Gray, et al., Diabetes 33, 1055 (1984)). Assays were performed in 24-well plates (90 islets per well). After a 45 min incubation in […] medium containing 5.6 mM glucose, a second incubation in RPMI containing 20.6 mM glucose and the proper concentration of AM and/or the antibody was performed. Supernatants from both incubations were tested by radioimmunoassay (RIA) for insulin (Amersham, Arlington Heights, Ill.). The ratio between the insulin concentration found in the high glucose supernatant and the insulin measured in the low glucose solution is represented in ordinates. After collecting the medium, the islets from the same experiments were saved for analysis of cAMP contents (Korman, et al., Cancer Res. 46, 1214 (1986)). Islets were extracted in 50% ethanol and centrifuged, and the supernatants were tested for cAMP using a RIA kit (New England Nuclear, Boston, Mass.) following manufacturer's instructions. The experiments were repeated three times and a representative example shown. Data are means±standard deviations of two wells.

rat isolated islets [2] = assay: cAMP content of rat isolated islets (RIA); assay type: cell-based; conditions: after addition of AM
Method: as §1

Isoelectric point = assay type: physicochemical
[3] = Oral glucose tolerance test in nonanesthetized rats; assay type: in vivo, Sprague-Dawley rats
Method: Glucose tolerance tests were performed on Sprague-Dawley rats (250 to 300 g) in the presence (◯) or absence (●) of AM. […] Glucose tolerance methods have been published previously (Brown, et al., Proc. Soc. Exp. Biol. Med. 150, 557 (1975)). Six rats were administered a glucose solution (400 mg/100 g body weight) via gastric intubation. Ocular blood samples were collected at intervals following glucose loading, and glucose concentration was determined by a calorimetric assay (Sigma). Blood insulin levels were determined on the same samples by radioimmunoassay (Amersham). Three days later, the same rats received 1 μL, of AM (60 μM) per g body weight through intravenous injection and tolerance tests were repeated. Data are means±standard deviations for the six animals. Two-tailed Student's test was performed to determine statistical significance. (*) indicates statistical significance (p<0.01).

C. albicans = assay: Micro-/macrodilutional assay, C. albicans; assay type: cell-based, Candida albicans
Method: Inhibition of growth of E. coli was assessed in a microdilutional timed kill assay. (See FIG. 22) Bacteria and Candida albicans were grown overnight on trypticase soy agar (TSA) and Sobouraud dextrose agar (SDA) plates, respectively, were suspended into RPMI-1640 medium (Bio-Whittaker) and adjusted to a final concentration of 8×10^3 cfu/ml in […] in plastic microdilution trays. […] Plates were incubated at 37° C. with gentle agitation over 24 hours. At 6 hr and 24 hr time points, 10 to […] aliquots from each well were quantitatively cultured by serial 100-fold dilutions onto TSA and SDA plates.
Data were compiled from six experiments. Macrodilution assays were performed in 12×75 mm borosilicate glass tubes. Organisms were grown and harvested, as described in Roilides, E., et al., J Infect Dis. 163:579 (1991), and adjusted to a final inoculum concentration of 8×10^3 cfu/ml in 400 μl. […] Tubes were incubated at 37° C. with gentle agitation over 24 hours. At 6 and 24 hour time points, 100 μl aliquots from each tube were quantitatively cultured by serial 100-fold dilutions onto TSA and SDA plates.

MCF-7 = assay: MTT growth assay, MCF-7; assay type: cell-based, human
Method: (§2) i. Growth Assays: MTT techniques were performed as previously described (Nakanishi, Y. F., et al., Exper. Cell Biol. 56:74-85 (1988)). In brief, a single cell suspension of 2×10^5 cells/ml (50 μl/well) is seeded into 96-well PVC plates and an appropriate concentration of MoAb-G6 and AM was added in a volume of 50 μl. The assay is performed in TIS medium (RMPI 1640 plus 10 μg/ml transferrin, 10 μg/ml insulin and 3×10^−8M sodium selenite). After 5 days growth at 37° C., 5% CO2, in a humid incubator, the dye and solubilization solutions were added from the Promega Proliferation Assay (Madison, Wis.), which is a variation of the MTT assay (Carmichael, Y. F., et al., Cancer Res. 47:943-946 (1987)). The Biorad Microplate Manager plate reader and software was used to determine the change in number of viable cells from dye reduction measured by absorbance at 570 nm.

[4] = tested on: tumor cell lines (lung, colon, breast, brain, and ovary); assay type: cell-based, human; conditions: R0-grown cultures; AM 0.1 μM to 100 μM, 0.1 nM to 100 nM
Source text: Results Obtained by Immunohistochemical (IHc) and in situ RT-PCR examination of paraffin-embedded RO-adapted cell lines were consistent with previously reported data on normal lung and pathological lung specimens (Martinez, A., et al., Endocrinology 136:4099-4105 (1995)). […] To further investigate this suspected phenomenon, MTT assay techniques were used to examine the effects of AM on the growth of several diverse tumor cell lines (lung, colon, breast, brain, and ovary). […] Since the test cells were known to produce authentic AM peptide, we assumed that this inability to stimulate growth with extrinsic ligand could possibly mean that the cells has already achieved maximal proliferative effects using their own AM.
as §2, with “After 5 days growth at 37° C., 5% CO2, in a humid incubator, the dye and solubilization solutions were added from the Promega Proliferation Assay (Madison, Wis.), which is a variation of the MTT assay (Carmichael, Y. F., et al., Cancer Res. 47:943-946 (1987)).” left out, “nm. […]” for “nm.”

[5] = tested on: RINm, N289, TR4, CRL 2057, CRL 1777, CRL 2055; assay: Insulin secretion of insulin-producing cell lines; assay type: cell-based; conditions: six insulin-producing cell lines
Source text: A similar mechanism has been described for amylin (R. A. Pittner et al., J. Cell. Biochem. 55S, 19 (1994)).

SMILES: CC[C@H](C)[C@H](NC(=O)[C@H](CCC(N)=O)NC(=O)[C@H](Cc1c[nH]cn1)NC(=O)[C@H](C)NC(=O)[C@H](CC(C)C)NC(=O)[C@H](CCCCN)NC(=O)[C@H](CCC(N)=O)NC(=O)[C@@H](NC(=O)[C@@H](NC(=O)[C@@H]1CSSC[C@H](NC(=O)CNC(=O)[C@H](Cc2ccccc2)NC(=O)[C@H](CO)NC(=O)[C@H](CCCNC(=N)N)NC(=O)[C@H](CC(C)C)NC(=O)CNC(=O)[C@H](CCC(N)=O)NC(=O)[C@H](Cc2ccccc2)NC(=O)[C@H](CC(N)=O)NC(=O)[C@H](CC(N)=O)NC(=O)[C@H](CCSC)NC(=O)[C@H](CO)NC(=O)[C@H](CCC(N)=O)NC(=O)[C@H](CCCNC(=N)N)NC(=O)[C@@H](N)Cc2ccc(O)cc2)C(=O)N[C@@H](CCCNC(=N)N)C(=O)N[C@@H](Cc2ccccc2)C(=O)NCC(=O)N[C@@H]([C@@H](C)O)C(=O)N1)[C@@H](C)O)C(C)C)C(=O)N[C@@H](Cc1ccc(O)cc1)C(=O)N[C@@H](CCC(N)=O)C(=O)N[C@@H](Cc1ccccc1)C(=O)N[C@H](C(=O)N[C@@H](CC(=O)O)C(=O)N[C@@H](CCCCN)C(=O)N[C@@H](CC(=O)O)C(=O)N[C@@H](CCCCN)C(=O)N[C@@H](CC(=O)O)C(=O)N[C@@H](CC(N)=O)C(=O)N[C@H](C(=O)N[C@@H](C)C(=O)N1CCC[C@H]1C(=O)N[C@@H](CCCNC(=N)N)C(=O)N[C@@H](CO)C(=O)N[C@@H](CCCCN)C(=O)N[C@H](C(=O)N[C@@H](CO)C(=O)N1CCC[C@H]1C(=O)N[C@@H](CCC(N)=O)C(=O)NCC(=O)N[C@@H](Cc1ccc(O)cc1)C(N)=O)[C@@H](C)CC)C(C)C)[C@@H](C)O [AM]
- inhibition of insulin secretion (rat isolated islets [1]; AM concentration of 1 μM, freshly isolated islets): 78%
- effect of AM on insulin secretion (rat isolated islets [1]; isolated islets): inhibits insulin secretion in a dose-dependent manner; also recorded: dose-dependent reduction of insulin secretion; also recorded: reduces insulin secretion
- cAMP levels in the islets (rat isolated islets [2]): Elevating levels of cAMP; also recorded: cAMP levels increased
- isoelectric point (Isoelectric point): 9.7 and 10.2
- insulin levels versus control ([3]; 20 min after intravenous injection of AM): Significant differences
- duration of block of insulin secretion ([3]; after intravenous injection of AM (1 μL of 60 μM per g body weight)): at least 20 min
- levels of circulating glucose versus control ([3]; after intravenous injection of AM, 1 h): significantly higher; also recorded: highly significant
- antimicrobial effect against C. albicans (C. albicans): 73%±8.1
- activity against C. albicans (C. albicans; after 6 hours of incubation): activity
- growth suppression by synthetic AM alone (MCF-7; AM 10 μM (FIG. 12B)): ≈ 10%
- reversal of MoAb-G6 growth inhibition by exogenous AM (MCF-7; MCF-7): abrogated
- EC50 (rat mast cells): 7.9 ± 3.9 µM
- stimulation of growth by exogenous AM [4]: ineffective in stimulating growth
- change in insulin secretion rate [5]: no change in insulin secretion rate; also recorded: not directly affected
